Here are results for 1 compound from US20240342138A1, “MICROTUBULE TARGETING AGENTS” (BPGbio, Inc., priority 2023, published 2024).

Test [1] relates to HCT116 cells. In words: Spindle assembly checkpoint activation, flow cytometry. It is filed as cell-based. As to conditions: 300 nM; FIG. 6. The protocol:
• 1. Hct116 were grown in DMEM with 10% FBS and 1% Penicillin/Streptomycin. • 2. Cells were plated into 6 well dishes at indicated cell numbers below (i.e. plate 1=300 k cells per well) and treatment started later the same day. Asynchronous (Asynch) control cells (Plate 1 were collected 1 day after plating. Compound 1 and Nocodazole were both 300 nM, CDK1i Ro-3306 10 μM, Aurora Bi (ABi) Hesperadin 50 μM. • 3. Cells were treated with Compound 1 or Noc for 20 hours then sequentially without changing media they were treated with CDK1i or ABi for 4 more hours. Alternatively, cells were treated with Compound 1 or Noc for 20 h then washed twice with warm media and grown in fresh media for 4 hours to allow passage through mitosis into G1 as diploid cells. • 4. Note that plate 4 treatments were in general extremely toxic to cells or inconclusive.
• 1. Collected all media and cells into the same conical tube. Centrifuged cells at 1000×g for 3 min. • 2. Aspirated off supernatant, washed with PBS. • 3. Centrifuged cells as above. • 4. Resuspended cells in cold 400 μl and while gently vortexing added 1 mL cold 100% ethanol slowly dropwise (fixes and permeabilizes) • 5. Stored at 4 degrees C. for at a minimum of 1 hour, or up to one week. • 6. […] Analyzed data with FlowJo 10 software and made graphs with GraphPad Prism.
For orientation: Flow cytometry measures light scatter and fluorescence of single cells or particles in a stream.

For test [2], the system named is DU145 cells. In words: In vitro potency, ATPlite 1Step (NTRC Oncolines). It is filed as cell-based. As to conditions: Homo sapiens, DU-145. The protocol: FIG. 12A-12E show the efficacy of Compound lin a prostate cancer xenograft model (DU145). A) In vitro potency of Compound 1 in DU145 cells as evaluated by ATPlite 1Step™ Perkin Elmer (performed by NTRC Oncolines). B) DU145 cells were implanted subcutaneously in nude mice and tumors were allowed to grow to a volume of 210 mm^3 followed by randomization of animals into three (3) groups (vehicle control, 75 mg/kg, 150 mg/kg Compound 1) with 12 animals per group. A Compound 1 solid dispersion was prepared prior to each dosing and administered by oral gavage two times a day (BID). Mean tumor volume of each group over time and the growth of tumor in each individual animal was graphed. For each individual animal of […] group TGI (%) was calculated based on the tumor growth inhibition of individual tumor at each given day of the study compared to the average of the group for that given day of the study. P-values were calculated using two-tailed distribution and two-sample equal variance (homoscedastic) for each group treated with Compound 1 for each given day of the study in reference to vehicle control. NS p>0.05; *p≤0.05; **p≤0.01; ***p p≤0.001; **** p≤0.0001. […] The level of two biomarkers, pHH3 and CCNB1 in each tissue was measured and graphed as the Min-to-Max plot and scatter plot of the level of each biomarker. […]

pIC50: −log10 of the molar value.

Usually pIC50 stands for the negative decadic logarithm of the IC50, by convention in mol/L.

On to `COc1ccccc1-c1nc(CNC(=O)c2ccccc2OC(F)F)n[nH]1` [Compound 1, 2-(difluoromethoxy)-N-[[5-(2-methoxyphenyl)-1H-1,2,4-triazol-3-yl]methyl]benzamide], for which, in test [1], the “Spindle assembly checkpoint activation, mechanism” value was “a mechanism at or before microtubule-kinetochore attachment in M phase of the cell cycle”. The compound also showed a pIC50 in test [2] (DU145) of 7.11. For the same compound, the Emax in test [2] (DU145, in vitro, read-out: Maximum effect (%)) amounted to 91%.
